# Source: patent publication US12673918B2, “Small molecule RPN13 inhibitors with antitumor properties” (The Johns Hopkins University, priority 2019, dated 2026)
# How the values were obtained:
# [1] = test system: HeLa cells; test: XTT cytotoxicity assay, HeLa; assay type: cell-based, human; settings: Homo sapiens, HeLa, read-out: IC50 HeLa
# Description: (§1) The impact of substituents of the aromatic ring on the potency of molecules was also examined. The presence of either an electron withdrawing group (EWG) or an electron donating group (EDG) influences the reactivity of a Michael acceptor towards the target protein but can also impact specificity/selectivity.
# [2] = test system: HT3; test: MTT cytotoxicity assay, HT3; assay type: cell-based; settings: Homo sapiens, HT-3, Table 3, 48 hr, Cervical (HPV −ve)
# Method: (§3) The cytotoxic efficacy of selected compounds was assessed against multiple myeloma (MM) cell lines, as this is a validated clinical target for the licensed proteasome inhibitors.
# (§4) Cell lines and cytotoxicity assays: All cell lines were obtained from the American Type Culture Collection (ATCC) and cultured in the specified medium supplemented with 10% fetal bovine serum, 100 IU/mL penicillin, and 100 μg/mL streptomycin at 37° C. in a humidified 5% CO2/95% air incubator. […] To assess drug cytotoxicity, cells were seeded at 2,500 cells/well (10,000 cells/well for MM lines) in 100 μL medium in 96-well plate and after 24 treated with compounds for 72 h, incubated according to the manufacturer's protocol with the Thiazolyl Blue Tetrazolium Bromide (Sigma, M2128) and A570 measured using a Benchmark Plus microplate spectrophotometer (BIO-RAD). IC50 data was analyzed by Graphpad Prism software. In the chirality studies the cells were treated with compounds for 48 h, and the cells were incubated and measured via the preceeding protocols.
# [3] = test system: proteasome (4UbFL reporter); test: 4UbFL proteasome reporter, transfected 293T cells; assay type: cell-based; settings: 4 hours
# Description: FIG. 9A illustrates 293T cells in 96 well plates transiently transected with the 4UbFL plasmid and 48 hr later treated with the indicated doses of each compound for 4 hr. Cells were lysed and luciferase activity assessed using a luminometer.
# To monitor proteasome activity in living cells, a construct was used expressing a fusion protein comprising four tandem repeats of ubiquitin fused in frame with firefly luciferase (4UbFL) (41) to cause this otherwise stable reporter protein to undergo rapid proteolytic degradation via the proteasome. To assess their capacity to inhibit cellular proteasome function, 293T cells were transiently transfected with the 4UbFL construct and then […] treated with compounds for 4 hours prior to assay of luciferase activity. Like bortezomib, RA375 induced a dramatic increase in bioluminescence, consistent with stabilization of 4UbFL, in a dose dependent manner. At very high concentrations the luciferase activity dropped because of cellular toxicity.
# Reporter assays: Sub-confluent cultures of cells were transfected with 4Ub-FL or FL plasmid using TransIT 2020 reagent (Minis Bio). […] Luciferase activity in cell lysate was determined with a luciferase assay kit (Promega) according to the manufacturer's instructions. Bioluminescence was measured by using a Glomax Multidetection system (Promega).
# [4] = test system: JHU11; test: MTT cytotoxicity assay, JHU11; assay type: cell-based; settings: Table 3, 48 hr, Head & Neck (HPV −ve)
# Method: as §3, §4
# [5] = test system: SKOV3 cells; test: XTT cytotoxicity assay, SKOV3; assay type: cell-based, human; settings: Homo sapiens, SK-OV-3; Table 1; XTT assay; read-out: IC50 SKOV3
# Description: as §1
# [6] = test system: intracellular GSH; test: Total GSH assay, SKOV3 cells; assay type: cell-based, human; settings: SKOV3, 0.5 μM, 12 hr
# Method: Luciferase and GSH assays: Sub-confluent cultures of cells were transfected with 4Ub-FL or FL plasmid using Lipofectamine 2000 reagent (Life Technologies). Cells were seeded at 10,000 cells/well in 96-wells plate 48 hr post transfection and incubated with compounds or vehicle (DMSO) at the doses and times indicated. Luciferase activity in cell lysate was determined with a luciferase assay kit (Promega) according to the manufacturer's instructions. Bioluminescence was measured by using a Glomax Multidetection system (Promega). Glutathione was assayed using the Promega GSH assay kit (V6611).
# [7] = test system: ID8-VegfDefb29 tumor; test: in vivo; assay type: in vivo, C57BL/6 mice
# Method: To assess therapeutic efficacy the ID8-VegfDefb29 cell line was utilized in a syngeneic mouse model of ovarian cancer expressing luciferase (62). ID8 was first derived from spontaneous malignant transformation of C57BL/6 mouse ovarian surface epithelial cells in vitro (69). ID8-Vegf Defb29 cells represent a more aggressive variant of ovarian cancer in which VEGF provides vascular growth which is augmented by the presence of DEFB29 (62). C57BL/6 mice were injected i.p. with ID8-VegfDefb29 cells stably expressing firefly luciferase (0.5×10^6 cells) in PBS (100 μL). After 72 hrs, mice were imaged for their basal luminescence levels using an IVIS200 imager. Mice with visible luminescence were randomized into equal groups including vehicle (n=8), RA414 (3 mg/Kg, n=8), RA414 (10 mg/Kg, n=8) and treated every three days for up to 3 weeks. Mice were imaged every week to measure bioluminescence expressed by tumor after administration of luciferin. […] On day 24 two mice were sacrificed after collection of ascites, and the remainder required euthanasia on day 31 (FIGS. 17A and 17B). Administration of RA414 at 10 mg/kg (3 doses delivered every three days) regressed the tumor completely in 50% of the mice with less than 10% weight loss. […] This is consistent with proteasome inhibition within the ascites cells by the […] RA414 treatment regimen.
# (§2) Tumor Studies: Female C57BL6 or Nude mice were inoculated with 10^6 ES2-Luciferase cells i.p. in 100 uL PBC, or ID8-VegfDefb29 syngeneic mouse model of ovarian cancer expressing luciferase (62) i.p. in 100 μL PBS. At day 3, mice were imaged for basal level luminescence activity with a Xenogen IVIS 200 after injection i.p. with luciferin (0.3 mg in 100 water). Mice were randomized into two groups (n=8) and treated i.p. with compounds or vehicle (25% (w/v) β-Hydroxypropylcyclodextrin in water), and imaged again on days 7 and 14. RA375 was administered i.p. at 10 mg/Kg.
# [8] = test system: NF-κB; settings: 293T cells stably expressing NFkB-Luc reporter; previously observed (13); read-out: IC50 of NF-κB signaling inhibition; cited from earlier work
# [9] = test system: VU93
# [10] = test system: ES2 cells; test: Seahorse mitochondrial stress test, ES2 cells; assay type: cell-based, human
# Method: During the mitochondrial stress test, baseline OCR measurements were followed by the addition of the compound oligomycin to measure ATP-linked respiration. Upon addition of the uncoupler FCCP, maximal respiration is measured. […] At the end of the assay, a mix of rotenone and antimycin A was injected to provide a measure of non-mitochondrial respiration. […] To determine the impact of RA413S on glycolysis, ES2 cells were incubated in medium without glucose or pyruvate and the baseline ECAR was measured. Addition of glucose allows the measurement of the glycolysis rate. This was followed by the injection of oligomycin which inhibits mitochondrial ATP production and shifts the energy production to glycolysis. The consequent rise in ECAR measures the cellular maximum glycolytic capacity.
# Seahorse Assay: For quantification of oxygen consumption rate, ES2 cells were seeded at 20,000 cells per well in Seahorse XF96 Analyzer plates in regular media and incubated at 37° C. with 5% CO2 overnight. […] The plate was then loaded into the Seahorse machine and readings of oxygen and pH levels were taken before and after injections of 3 μM oligomycin, 4 μM FCCP, 2 μM antimycin, and 2 μM rotenone. Oxygen consumption rate and extracellular acidification rate were analyzed using Wave 2.4 software.
# [11] = test system: MCF7; settings: human
# [12] = test system: SSC90; settings: human
# [13] = test system: SKOV3
# Method: Cell lines and cytotoxicity assays: All cell lines were obtained from the American Type Culture Collection (ATCC) and cultured in the specified medium supplemented with 10% fetal bovine serum, 100 IU/mL penicillin, and 100 μg/mL streptomycin at 37° C. in a humidified 5% CO2/95% air incubator. […] To assess drug cytotoxicity, cells were seeded at 2,500 cells/well (10,000 cells/well for MM lines) in 100 μL medium in 96-well plate and after 24 treated with compounds for 72 h, incubated according to the manufacturer's protocol with the Thiazolyl Blue Tetrazolium Bromide (Sigma, M2128) and A570 measured using a Benchmark Plus microplate spectrophotometer (BIO-RAD). IC50 data was analyzed by Graphpad Prism software.
# [14] = test system: ES2-luc xenograft; test: ES2-luc intraperitoneal xenograft in nude mice; assay type: in vivo; settings: 10 mg/Kg every 3 days, total 12 doses
# Method: ES2 is a human cell line derived from a high grade ovarian clear cell carcinoma (42). The efficacy of RA375 against the ES2 xenograft model expressing luciferase (ES2-luc) was tested. Nude female mice were inoculated with ES2-luc cells into the peritoneal cavity. After 3 days the mice were imaged for their basal luminescence activity and randomized into two groups (n=8). […] Mice were imaged after the first and second week of treatment for their luciferase activity to assess tumor burden.
# Briefly, female nude mice were injected interperitoneally (i.p.) with ES2-luc cells (1×10^6) in 100 μL PBS and the basal luminescence was measured after three days using IVIS 200 imaging after injecting luciferin. […] Over the treatment period mice were imaged every week for bioluminescence to monitor tumor growth.
# as §2
# [15] = test system: HS578T; settings: human
# [16] = 3 mg/Kg, 9 doses delivered every three days
compound,measurement,setting,value
O=C(CCl)N[C@@H](Cc1ccccc1)C(=O)N1C/C(=C\c2ccc([N+](=O)[O-])cc2)C(=O)/C(=C/c2ccc([N+](=O)[O-])cc2)C1 [RA375],IC50,[1],13 nM
same,IC50,[2],162 nM
same,fold more potent than RA190 (4UbFL stabilization),[3],4 fold
same,fold more potent than bortezomib (4UbFL stabilization),[3],2 fold
same,IC50,[4],178 nM
"N[C@@H](Cc1ccccc1)C(=O)N1C/C(=C\c2ccc(Cl)c(Cl)c2)C(=O)/C(=C/c2ccc(Cl)c(Cl)c2)C1 [RA190, reference compound]",IC50,[5],75 nM
"CC(C)C[C@H](NC(=O)[C@H](Cc1ccccc1)NC(=O)c1cnccn1)B(O)O [Bortezomib, bortezomib, reference compound]",cellular total GSH levels,[6],profoundly reduced cellular GSH levels
CC1/C(=C\c2ccc([N+](=O)[O-])cc2)C(=O)/C(=C/c2ccc([N+](=O)[O-])cc2)CN1C(=O)[C@H](Cc1ccccc1)NC(=O)CCl (stereo partly shown) [RA414],tolerability,[7]; [16],well tolerated
same,tumor growth,[7]; [16],inhibited tumor growth
same,mice with tumor regressed completely,"[7]; 10 mg/kg, 3 doses delivered every three days",50%
same,mice that did not tolerate the dose (>10% weight loss) or died,"[7]; 10 mg/kg, 3 doses delivered every three days, tumor-bearing mice",50%
"N[C@@H](Cc1ccccc1)C(=O)N1C/C(=C\c2ccc([N+](=O)[O-])cc2)C(=O)/C(=C/c2ccc([N+](=O)[O-])cc2)C1 [RA183, reference compound]",IC50,[8],100 nM
C[C@H]1/C(=C\c2ccc([N+](=O)[O-])cc2)C(=O)/C(=C/c2ccc([N+](=O)[O-])cc2)CN1C(=O)[C@@H](N)Cc1ccccc1,IC50,[9],100 nM
same,decrease of ATP production,"[10]; ES2, 12 hr, 100 nM",~4 fold
same,maximal respiration,"[10]; ES2, relative to vehicle or RA414-treated groups",significantly reduced
same,IC50,[11],250 nM
same,IC50,[12],125 nM
same,tumor burden compared to vehicle,"[7]; 15 mg/Kg every 3 days, total 5 doses, day 17, p<0.0001",significant decrease in tumor burden
same,fold more cytotoxic than RA413R,[13],4 fold
same,survival,[14],significantly increased survival
same,tumor burden (bioluminescence),[14],significantly reduced tumor burden
same,IC50,[15],40 nM
